Measured values: PubChem BioAssay AID1918936 (Molecular Pharmacology Branch, DTP, NCI, 2023)

Tested on: 349418-098-R-PDC complex spheroid viability
Experiment: Anticancer human tumor 349418-098-R-PDC patient-derived lung adenocarcinoma cell line growth inhibition
Conditions: for IC50: curve of first compound; for viability, T/C: stronger effect = lower value; active = viability on the fitted dose curve at most 10% of control; inactive = the rest
Outline: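 Drug combinations with the LSD1 inhibitor iadademstat tested on tumor cells co-cultured as spheroids with endothelial cells and mesenchymal stem cells. Concentrations descended in half-log increments from clinical Cmax or 10 microM.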

[1] = second compound 0.1 µM, first compound 0.00949 µM
[2] = second compound 0.1 µM, first compound 0.03 µM
[3] = second compound 0.1 µM, first compound 0.0949 µM
[4] = second compound 0.1 µM, first compound 0.3 µM
[5] = second compound 0.316 µM, first compound 0.00949 µM
[6] = second compound 0.316 µM, first compound 0.03 µM
[7] = second compound 0.316 µM, first compound 0.0949 µM
[8] = second compound 0.316 µM, first compound 0.3 µM
[9] = second compound 1 µM, first compound 0.00949 µM
[10] = second compound 1 µM, first compound 0.03 µM
[11] = second compound 1 µM, first compound 0.0949 µM
[12] = second compound 1 µM, first compound 0.3 µM
[13] = second compound 3.16 µM, first compound 0.00949 µM
[14] = second compound 3.16 µM, first compound 0.03 µM
[15] = second compound 3.16 µM, first compound 0.0949 µM
[16] = second compound 3.16 µM, first compound 0.3 µM
[17] = second compound 10 µM, first compound 0.00949 µM
[18] = second compound 10 µM, first compound 0.03 µM
[19] = second compound 10 µM, first compound 0.0949 µM
[20] = second compound 10 µM, first compound 0.3 µM
[21] = second compound 0.1 µM, first compound 0.000316 µM
[22] = second compound 0.1 µM, first compound 0.001 µM
[23] = second compound 0.1 µM, first compound 0.00316 µM
[24] = second compound 0.1 µM, first compound 0.01 µM
[25] = second compound 0.1 µM, first compound 0.0316 µM
[26] = second compound 0.1 µM, first compound 0.1 µM
[27] = second compound 0.316 µM, first compound 0.000316 µM
[28] = second compound 0.316 µM, first compound 0.001 µM
[29] = second compound 0.316 µM, first compound 0.00316 µM
[30] = second compound 0.316 µM, first compound 0.01 µM
[31] = second compound 0.316 µM, first compound 0.0316 µM
[32] = second compound 0.316 µM, first compound 0.1 µM
[33] = second compound 1 µM, first compound 0.000316 µM
[34] = second compound 1 µM, first compound 0.001 µM
[35] = second compound 1 µM, first compound 0.00316 µM
[36] = second compound 1 µM, first compound 0.01 µM
[37] = second compound 1 µM, first compound 0.0316 µM
[38] = second compound 1 µM, first compound 0.1 µM
[39] = second compound 3.16 µM, first compound 0.000316 µM
[40] = second compound 3.16 µM, first compound 0.001 µM
[41] = second compound 3.16 µM, first compound 0.00316 µM
[42] = second compound 3.16 µM, first compound 0.01 µM
[43] = second compound 3.16 µM, first compound 0.0316 µM
[44] = second compound 3.16 µM, first compound 0.1 µM
[45] = second compound 10 µM, first compound 0.000316 µM
[46] = second compound 10 µM, first compound 0.001 µM
[47] = second compound 10 µM, first compound 0.00316 µM
[48] = second compound 10 µM, first compound 0.01 µM
[49] = second compound 10 µM, first compound 0.0316 µM
[50] = second compound 10 µM, first compound 0.1 µM
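Note: spheroids exposed to agents for seven days before readout.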
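Throughout, for viability, T/C: 100% = DMSO vehicle control wells.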

CCN(c1cc(-c2ccc(CN3CCOCC3)cc2)cc(C(=O)NCc2c(C)cc(C)[nH]c2=O)c1C)C1CCOCC1 + NC1CCC(NC2CC2c2ccccc2)CC1
inactive: viability, T/C [1] 107% | viability, T/C [2] 93.5% | viability, T/C [3] 82.9% | viability, T/C [4] 70.5% | viability, T/C (second compound 0.1 µM, first compound 0.949 µM) 59.3% | viability, T/C (second compound 0.1 µM, first compound 3 µM) 60% | viability, T/C [5] 99.1% | viability, T/C [6] 105% | viability, T/C [7] 90.1% | viability, T/C [8] 77.5% | viability, T/C (second compound 0.316 µM, first compound 0.949 µM) 69.3% | viability, T/C (second compound 0.316 µM, first compound 3 µM) 62.2% | viability, T/C [9] 106% | viability, T/C [10] 88.7% | viability, T/C [11] 98% | viability, T/C [12] 75.6% | viability, T/C (second compound 1 µM, first compound 0.949 µM) 75.3% | viability, T/C (second compound 1 µM, first compound 3 µM) 57% | viability, T/C [13] 106% | viability, T/C [14] 87.6% | viability, T/C [15] 81% | viability, T/C [16] 68.3% | viability, T/C (second compound 3.16 µM, first compound 0.949 µM) 55.6% | viability, T/C (second compound 3.16 µM, first compound 3 µM) 59.5% | viability, T/C [17] 79% | viability, T/C [18] 91.2% | viability, T/C [19] 64.9% | viability, T/C [20] 59.7% | viability, T/C (second compound 10 µM, first compound 0.949 µM) 47.4% | viability, T/C (second compound 10 µM, first compound 3 µM) 34.5%
640 nM: IC50 (second compound 10 µM)
> 3000 nM: IC50 (second compound 0.1 µM) | IC50 (second compound 0.316 µM) | IC50 (second compound 1 µM) | IC50 (second compound 3.16 µM)

CC[C@@]1(O)C(=O)OCc2c1cc1n(c2=O)Cc2cc3c(CN(C)C)c(O)ccc3nc2-1 + NC1CCC(NC2CC2c2ccccc2)CC1
1.87 nM: IC50 (second compound 10 µM)
2.12 nM: IC50 (second compound 1 µM)
inactive: viability, T/C [21] 98.8% | viability, T/C [22] 86.5% | viability, T/C [23] 27.2% | viability, T/C [27] 113% | viability, T/C [28] 78.6% | viability, T/C [29] 28.8% | viability, T/C [33] 98.9% | viability, T/C [34] 84.8% | viability, T/C [35] 31.4% | viability, T/C [39] 91.6% | viability, T/C [40] 83.5% | viability, T/C [41] 35.2% | viability, T/C [45] 95% | viability, T/C [46] 71% | viability, T/C [47] 31.8% | viability, T/C [48] 12%
active: viability, T/C [24] 8.74% | viability, T/C [25] 4.98% | viability, T/C [26] 3.65% | viability, T/C [30] 8.08% | viability, T/C [31] 5.09% | viability, T/C [32] 3.1% | viability, T/C [36] 8.25% | viability, T/C [37] 5.11% | viability, T/C [38] 2.94% | viability, T/C [42] 9.52% | viability, T/C [43] 5.25% | viability, T/C [44] 3.35% | viability, T/C [49] 4.67% | viability, T/C [50] 3.15%
1.94 nM: IC50 (second compound 0.316 µM)
2.23 nM: IC50 (second compound 3.16 µM)
2.04 nM: IC50 (second compound 0.1 µM)

Cn1ncnc1C1c2n[nH]c(=O)c3cc(F)cc(c23)NC1c1ccc(F)cc1 (stereo not given) + NC1CC1c1ccc(-c2cccc(O)c2)cc1
inactive: viability, T/C [21] 115% | viability, T/C [22] 105% | viability, T/C [23] 112% | viability, T/C [24] 105% | viability, T/C [25] 101% | viability, T/C [26] 102% | viability, T/C [27] 112% | viability, T/C [28] 110% | viability, T/C [29] 111% | viability, T/C [30] 104% | viability, T/C [31] 106% | viability, T/C [32] 101% | viability, T/C [33] 119% | viability, T/C [34] 112% | viability, T/C [35] 106% | viability, T/C [36] 107% | viability, T/C [37] 108% | viability, T/C [38] 101% | viability, T/C [39] 114% | viability, T/C [40] 117% | viability, T/C [41] 105% | viability, T/C [42] 115% | viability, T/C [43] 103% | viability, T/C [44] 103% | viability, T/C [45] 99.1% | viability, T/C [46] 100% | viability, T/C [47] 98.9% | viability, T/C [48] 96.9% | viability, T/C [49] 90.9% | viability, T/C [50] 86.8%
> 100 nM: IC50 (second compound 0.1 µM) | IC50 (second compound 0.316 µM) | IC50 (second compound 1 µM) | IC50 (second compound 3.16 µM) | IC50 (second compound 10 µM)

Nc1ccn(C2OC(CO)C(O)C2(F)F)c(=O)n1 (stereo not given) + NC1CC1c1ccc(-c2cccc(O)c2)cc1
active: viability, T/C (second compound 0.1 µM, first compound 0.003 µM) 4.68% | viability, T/C [1] 4.34% | viability, T/C [2] 4.35% | viability, T/C [3] 3.93% | viability, T/C [4] 4.06% | viability, T/C (second compound 0.316 µM, first compound 0.003 µM) 3.77% | viability, T/C [5] 3.96% | viability, T/C [6] 3.75% | viability, T/C [7] 3.4% | viability, T/C [8] 3.31% | viability, T/C (second compound 1 µM, first compound 0.003 µM) 4.07% | viability, T/C [9] 4.17% | viability, T/C [10] 3.99% | viability, T/C [11] 3.7% | viability, T/C [12] 3.81% | viability, T/C (second compound 3.16 µM, first compound 0.003 µM) 4.9% | viability, T/C [13] 4.67% | viability, T/C [14] 4.52% | viability, T/C [15] 3.81% | viability, T/C [16] 3.95% | viability, T/C (second compound 10 µM, first compound 0.003 µM) 4.98% | viability, T/C [17] 5.12% | viability, T/C [18] 4.52% | viability, T/C [19] 4.65% | viability, T/C [20] 4.28%
inactive: viability, T/C (second compound 0.1 µM, first compound 0.000949 µM) 13.3% | viability, T/C (second compound 0.316 µM, first compound 0.000949 µM) 14.1% | viability, T/C (second compound 1 µM, first compound 0.000949 µM) 15.9% | viability, T/C (second compound 3.16 µM, first compound 0.000949 µM) 18.6% | viability, T/C (second compound 10 µM, first compound 0.000949 µM) 17.2%
< 0.949 nM: IC50 (second compound 0.1 µM) | IC50 (second compound 0.316 µM) | IC50 (second compound 1 µM) | IC50 (second compound 3.16 µM) | IC50 (second compound 10 µM)
